Like-named read-outs stand apart in the source and are kept apart here. Where a SMILES comes first, the peptide text is derived from it. The star is where a group is joined. NOTA = O=C(O)CN1CCN(CC(=O)O)CCN(CC(=O)*)CC1; AEEA = NCCOCCOCC(=O)O
How the values were obtained:
[1] = system: RT-112, A549, SNU-16 and Calu-3 cells; experiment: Cellular internalization study; type: cell-based, human; details: acid wash with acetate buffer pH 2.5, four cell lines, P > 0.5, n = 6
Experimental: Internalization studies were performed according to the planned experiments. Thirty microliters (111 KBq, 1.81-2.53 GBq/μmol) of [^18F]F-FGFR1 was incubated with fresh medium in 24-well plates. The medium was discarded at predetermined time points, and the wells were rinsed twice with 1000 µl of PBS. Then, 1000 µl of acetate buffer (0.2 M acetic acid/0.5 M NaCl, pH 2.5) was added to the wells to remove surface-bound radioactivity. After removing the acetate buffer, the cells were washed twice with 1000 µl of PBS. The acetate buffer and PBS were collected and marked as Cs. The radioactivity of the collected cell lysate was measured and defined as Cin. The internalization rate was assessed in a similar method to the cell uptake rate calculation: Cin/(Cin + Cs).

[2] = In vitro stability in fresh human serum (RP-HPLC); type: in vitro ADME; details: 37°C, 1, 2, 4 and 6 h
Experimental: The in vitro and in vivo stability of [^18F]F-FGFR1 was evaluated by RP-HPLC analysis. […] The radiochemical purity of the final compounds was determined by RP-HPLC.

[3] = system: RT-112 cells (FGFR1-high expression); experiment: Cellular uptake and blocking study; type: cell-based, human
Experimental: RT-112, A549, SNU-16 and Calu-3 cells were cultured at a density of 1*10^5 cells per well in 24-well plates the day before cellular uptake experiments. Cells were rinsed twice with 1000 µl of phosphate-buffered saline (PBS) (BI, Israel), followed by 1000 µl of growth medium. Then, 30 µl (111 KBq, 1.81-2.53 GBq/μmol) of [^18F]F-FGFR1 was added to each well, and the cells were incubated with the peptide for 15, 30, 60 and 120 min. At each cutoff time, 6 wells of supernatant were collected. The collected wells were washed twice with 1000 µl of PBS. Radioactivity counts were marked as Cout. […] After 500 µl of trypsin-EDTA digestion of the adherent cells and washed twice with 1000 µl of PBS, the collected cells were defined as Cin. Radioactivity was counted with an automatic γ counter. The formula for the cell uptake rate was as follows: Cin/(Cin + Cout).
To determine the specific binding of [^18F]F-FGFR1 with FGFR1 on the cell surface, 200-fold unlabeled peptide (220 µg) and 30 µl of [^18F]F-FGFR1 (111 KBq) were added to RT-112 cells at the same time. The supernatants were removed after 120 min of incubation. The subsequent steps of cell collection and radioactivity detection were performed as described above. The cell uptake rate was calculated by Cin/(Cin + Cout).

[4] = Micro-PET/CT biodistribution in A549 xenografts; type: in vivo, BALB/c nude mice; details: female, BALB/c nude, mouse, iv, total radioactivity, 11.1 MBq tail vein, micro-PET/CT ROI, mean ± SD; for tissue uptake at 0.5 h: 30 min post-injection; for tissue uptake at 1 h: 60 min post-injection; for tissue uptake at 2 h: 120 min post-injection
Experimental: All animal experiments were carried out in accordance with the Laboratory Animal Ethical Review of Animal Guidelines of China. BALB/c nude mice (sex, female; age, 4 weeks, body weight range, 19-21 g; China) were used for this study. Four cell lines (2*10^7 cells/nude mouse) were subcutaneously injected into the right forelimb to induce solid tumors. All xenograft nude mice were housed in laminar flow cabinets in a specific pathogen-free (SPF) environment and were provided ad libitum access to food and water at the Laboratory Animal Center of the Fourth Hospital of Hebei Medical University (China). The indication for micro-PET/CT imaging was xenografts with a tumor volume of 50-130 mm^3. All animal experiments strictly adhered to the Principles of the Laboratory Animal Ethical Committee of the Fourth Hospital Hebei Medical University (No. 2020016).
Xenograft mice (n=5) were fastly injected of 200 µl of [^18F]F-FGFR1 (11.1 MBq) through tail vein. For the in vivo blocking study, RT-112 (FGFR1-high expression) tumor-bearing mice (n = 5) were injected with a tracer that was mixed with 200-fold (1.58 mg) unlabeled peptide to saturate the receptors in the tumors. Mice were anesthetized via 3% isoflurane inhalation (RWD Life Science Inc. China) for induction and 2% isoflurane inhalation for maintenance. Micro-PET/CT imaging was performed on a micro-PET/SPECT/CT machine (NOVEL MEDICAL Equipment Ltd. China). Whole-body scans were performed 30, 60 and 120 min after tracer administration. The CT scanning parameters were 80 kV, 0.5 mA, 2000 ms/frames, and 360 frames; the images were reconstructed with a 512*512 matrix and a slice thickness of 0.18 mm. PET images were acquired with a 140*140 matrix and 10 min of total acquisition time. Reconstructed images were processed with the comprehensive image analysis software Pmod v4.201 (PMOD Technologies LLC. Switzerland). The biodistribution of the major organs (brain, heart, lung, liver, kidney, bone and muscle) and tumor were analyzed by manually outlining the regions of interest (ROIs) of the entire organs and tissue at each time point of the micro-PET/CT scan. The radioactivity accumulated in bone and muscle was measured in the limbs without xenograft tumors.

[5] = bone, n=5, read-out: Biodistribution, Bone
[6] = brain, n=5, read-out: Biodistribution, Brain
[7] = heart, n=5, read-out: Biodistribution, Heart
[8] = kidney, n=5, read-out: Biodistribution, Kidney
[9] = liver, n=5, read-out: Biodistribution, Liver
[10] = lung, n=5, read-out: Biodistribution, Lung
[11] = muscle, n=5, read-out: Biodistribution, Muscle
[12] = tumor, n=5, read-out: Biodistribution, Tumor

Radiochemical purity after incubation (in vitro stability) [2]: exceeded 90%
tissue uptake at 0.5 h [4, 5]: 0.33 ± 0.1 %ID/g
tissue uptake at 1 h [4, 5]: 0.35 ± 0.06 %ID/g
tissue uptake at 2 h [4, 5]: 0.39 ± 0.02 %ID/g
tissue uptake at 0.5 h [4, 6]: 0.61 ± 0.06 %ID/g
tissue uptake at 1 h [4, 6]: 0.72 ± 0.13 %ID/g
tissue uptake at 2 h [4, 6]: 0.64 ± 0.17 %ID/g
tissue uptake at 0.5 h [4, 7]: 0.9 ± 0.09 %ID/g
tissue uptake at 1 h [4, 7]: 0.88 ± 0.04 %ID/g
tissue uptake at 2 h [4, 7]: 0.64 ± 0.07 %ID/g
tissue uptake at 0.5 h [4, 8]: 9.35 ± 1.87 %ID/g
tissue uptake at 1 h [4, 8]: 7.89 ± 1.06 %ID/g
tissue uptake at 2 h [4, 8]: 4.46 ± 0.6 %ID/g
tissue uptake at 0.5 h [4, 9]: 1.53 ± 0.11 %ID/g
tissue uptake at 1 h [4, 9]: 1.52 ± 0.18 %ID/g
tissue uptake at 2 h [4, 9]: 1.58 ± 0.08 %ID/g
tissue uptake at 0.5 h [4, 10]: 0.69 ± 0.12 %ID/g
tissue uptake at 1 h [4, 10]: 0.65 ± 0.04 %ID/g
tissue uptake at 2 h [4, 10]: 0.53 ± 0.07 %ID/g
tissue uptake at 0.5 h [4, 11]: 0.27 ± 0.03 %ID/g
tissue uptake at 1 h [4, 11]: 0.27 ± 0.02 %ID/g
tissue uptake at 2 h [4, 11]: 0.28 ± 0.02 %ID/g
tissue uptake at 0.5 h [4, 12]: 0.87 ± 0.08 %ID/g
tissue uptake at 1 h [4, 12]: 0.64 ± 0.08 %ID/g
tissue uptake at 2 h [4, 12]: 0.53 ± 0.04 %ID/g
SMILES: CC(C)C[C@H](NC(=O)[C@H](CO)NC(=O)[C@H](CCCCN)NC(=O)[C@H](Cc1c[nH]c2ccccc12)NC(=O)[C@H](CCC(=O)O)NC(=O)[C@H](C)NC(=O)[C@H](CCCCN)NC(=O)COCCOCCNC(=O)CN1CCN(CC(=O)O)CCN(CC(=O)O)CC1)C(=O)NCC(=O)N[C@@H](CCC(=O)O)C(=O)N[C@@H](CCC(=O)O)C(=O)N[C@@H](C)C(=O)N[C@@H](Cc1c[nH]c2ccccc12)C(=O)N[C@@H](Cc1c[nH]cn1)C(=O)N[C@@H](CO)C(=O)N[C@@H](CCCCN)C(=O)O [[^18F]F-FGFR1] ({NOTA-AEEA}-KAEWKSLGEEAWHSK-OH; N-terminus and C-terminus assumed)
Internalization fraction Cin/(Cin + Cs) [1]: not significantly different in the four cell lines
Cellular uptake in RT-112 versus A549, SNU-16 and Calu-3 cells ([3]; 15, 30, 60 and 120 min incubation, P < 0.001, n = 6): consistently higher in RT-112 cell line
Cell uptake rate Cin/(Cin + Cout), blocked ([3]; RT-112 cells, 111 KBq tracer with 200-fold excess unlabeled peptide (220 µg), 120 min, mean ± SD, n = 6): 0.24 ± 0.05
Cell uptake rate Cin/(Cin + Cout) ([3]; RT-112 cells, 111 KBq tracer, 120 min incubation, γ counter, mean ± SD, n = 6): 5.11 ± 0.63
